# Source: paper PMC8217170, “Phase Ib dose-escalation study of the hypoxia-modifier Myo-inositol trispyrophosphate in patients with hepatopancreatobiliary tumors” (Nature Communications, 2021)
# Test: Phase Ib dose escalation: safety and tolerability (CTCAE v4.03), MTD
# Format: in vivo, human
# Set-up: key to Hypercalcemia, CTCAE-Grade / Hypophosphatemia, CTCAE-Grade / Cholestasis, CTCAE-Grade / Nausea, CTCAE-Grade / Hypertension, CTCAE-Grade / Upper respiratory tract infection, CTCAE-Grade / Hyponatremia, CTCAE-Grade / Hypomagnesemia, CTCAE-Grade / Ascites & death due to rapid progression of malignancy, CTCAE-Grade / Hypokalemia, CTCAE-Grade / Pyrexia, CTCAE-Grade / Hyperphosphatemia, CTCAE-Grade / AV Block 1°, CTCAE-Grade / Palpations, CTCAE-Grade: 1 is the mildest form of the specific symptom; 5 is death
# Details: for Hypercalcemia, CTCAE-Grade: relationship to IMP: Definitively
# Excerpt: This first-in-patient investigator-initiated phase Ib dose-escalation study followed a 3 + 3 dose-escalation scheme with a planned maximal inclusion of 48 participants allocated to eight cohorts of increasing doses. Outcomes were safety, tolerability, pharmacokinetics, and preliminary efficacy of ITPP with participants in this exploratory, prospective, open-label and unblinded, unrandomized, single-center investigation being enrolled at the University Hospital Zurich (USZ), Switzerland. Written informed consent was obtained of all participants before study inclusion after a time of consideration of at least 24 h. Written consent included the reporting and publication of individual, anonymized patient data. The study adhered to the principles of the Declaration of Helsinki, current good clinical practice guidelines and all ethical regulations. The study protocol was approved by the responsible independent ethics committee of Zurich (KEK-ZH-Nr. 2014-0374) and the national regulatory authority Swissmedic (2015DR1009) and is provided in the Supplementary Note 1. The study setup was published before inclusion start[55] and the trial first registered at ClinicalTrials.gov (NCT02528526) on 11/11/2014. After 6 sequential reviews requiring minor editorial changes, final registration at ClinicalTrials.gov was obtained on the 08/18/2015. The first patient was included in the study 04/13/2015, with treatment started on the 04/27/2015. 4 patients were included in the trial before final registration at ClinicalTrials.gov (04/13/2015–07/20/2015). The last patient was included on the 06/12/2018, treatment started on the 06/18/2018 and the last treatment administered on 07/06/2018. Data cut-off for the study was the 12/31/2018. The manuscript was written in compliance with ICMJE guidelines.
# Primary objectives were (i) assessment of the safety and tolerability of increasing doses of ITPP, and (ii) establishment of the MTD (primary endpoint) according to the dose escalation schema. The primary outcome was measured by collection of adverse effects information according to Common Terminology Criteria for Adverse Events (CTCAE, US National Cancer Institute, version 4.03). Safety objectives and outcomes were identical with the primary endpoint.
# The study drug (brand name: OXY111A) was intravenously administered in 9 infusions, each lasting 8 h, over 3 weeks in an outpatient setting at the Phase 1 unit of the USZ Clinical Trials Center. Due to its anionic properties, ITPP acts a potent chelator of calcium. Therefore, administration with CaCl2 (Baxter) at a 1:0.75 molar ratio has been determined to prevent hypocalcaemia. Respective doses were calculated based on body surface area (DuBois/DuBois formula). Cohort 1 started at weekly doses of 5600 mg/m^2 weekly, equal to the maximal weekly dose tested in healthy volunteers (unpublished data from Normoxys®). Dose escalation was performed according to the predefined scheme (Fig. 1a, Supplementary Note 1: page 6) up to a maximum weekly dose of 43,700 mg/m^2. During infusion days, participants had continuous monitoring of vital signs and daily 12-electrode electrocardiograms. Electrolytes measurements and venous blood gas analyses were performed three-hourly, while complete blood count, coagulation and routine kidney/liver parameters were assessed twice daily.
# Severity of encountered AE was assessed following the CTCAE guidelines. Serious AE were defined as events being life-threatening, necessitating hospitalization, resulting in death or birth defects. DLT was defined as any AE ≥ grade 3 and sTET as any grade 2 AE considered to be definitely, probably or possibly related to ITPP. […] MTD was defined as the dose preceding the level at which 1 patient experienced a DLT or ≥3 patients experienced a sTET (Supplementary Note 1: page 6). The window for DLT/sTET/MTD assessment was from first dose of ITPP until first dose of chemotherapy or 10d following the last ITPP infusion. […]
# [1] = cohort 4, AE, relationship to IMP: Possibly
# [2] = cohort 4, AE, relationship to IMP: Unrelated
# [3] = cohort 4, SAE, relationship to IMP: Unrelated
# [4] = cohort 5, AE, relationship to IMP: Unlikely
# [5] = cohort 7, AE, relationship to IMP: Unlikely
# [6] = cohort 7, AE, relationship to IMP: Unrelated
# [7] = cohort 8, AE, relationship to IMP: Possibly
smiles,measurement,setting,value
"O=P1(O)OC2C3OP(=O)(O)OP(=O)(O)OC3C3OP(=O)(O)OP(=O)(O)OC3C2OP(=O)(O)O1 (stereo not drawn) [ITPP, Myo-inositol trispyrophosphate]","Icterus due to malignant obstruction (AE, not ITPP-related)","cohort 4, 7000 mg/m^2",0
same,"Lower gastrointestinal bleeding (AE, not ITPP-related)","cohort 4, 7000 mg/m^2",0
same,"Nausea & vomiting due to malignant infiltration of stomach (AE, not ITPP-related)","cohort 4, 7000 mg/m^2",0
same,"Neutropenia (AE, not ITPP-related)","cohort 4, 7000 mg/m^2",0
same,"Palpitations (AE, not ITPP-related)","cohort 4, 7000 mg/m^2",0
same,"Pyrexia (AE, not ITPP-related)","cohort 4, 7000 mg/m^2",0
same,"Hypercalcemia, CTCAE-Grade","cohort 4, AE",1
same,"Hypertension, CTCAE-Grade",[1],1
same,"Hypophosphatemia, CTCAE-Grade",[1],1
same,"Ascites, CTCAE-Grade",[2],3
same,"Nausea, CTCAE-Grade",[2],1
same,"Upper respiratory tract infection, CTCAE-Grade",[2],1
same,"Acute kidney injury grad 3, CTCAE-Grade",[3],3
same,"Hospitalisation due to fatigue/decreased state of health, CTCAE-Grade",[3],3
same,"AV Block 1° (AE, not ITPP-related)","cohort 5, 8750 mg/m^2",0
same,"Acute kidney injury grade 3 (AE, not ITPP-related)","cohort 5, 8750 mg/m^2",0
same,"Ascites due to oncological progress (AE, not ITPP-related)","cohort 5, 8750 mg/m^2",0
same,"C. difficile enteritis (AE, not ITPP-related)","cohort 5, 8750 mg/m^2",0
same,"Cholestasis (AE, not ITPP-related)","cohort 5, 8750 mg/m^2",0
same,"Fatigue (AE, not ITPP-related)","cohort 5, 8750 mg/m^2",0
same,Hyperphosphatemia (TET),"cohort 5, 8750 mg/m^2",0
same,Hypertension (TET),"cohort 5, 8750 mg/m^2",0
same,Hypomagnesemia (TET),"cohort 5, 8750 mg/m^2",0
same,Hypophosphatemia (TET),"cohort 5, 8750 mg/m^2",0
same,"Lower gastrointestinal bleeding (AE, not ITPP-related)","cohort 5, 8750 mg/m^2",0
same,"Nausea & vomiting due to malignant infiltration of stomach (AE, not ITPP-related)","cohort 5, 8750 mg/m^2",0
same,"Nausea (AE, not ITPP-related)","cohort 5, 8750 mg/m^2",0
same,"Neutropenia (AE, not ITPP-related)","cohort 5, 8750 mg/m^2",0
same,"Palpitations (AE, not ITPP-related)","cohort 5, 8750 mg/m^2",0
same,"Pyrexia (AE, not ITPP-related)","cohort 5, 8750 mg/m^2",0
same,"Upper respiratory tract infection (AE, not ITPP-related)","cohort 5, 8750 mg/m^2",0
same,"Hypercalcemia, CTCAE-Grade","cohort 5, AE",1
same,"Hypokalemia, CTCAE-Grade",[4],2
same,"Hyponatremia, CTCAE-Grade",[4],1
same,"Icterus/Stenosis D. choledochus, CTCAE-Grade",[4],3
same,"AV Block 1° (AE, not ITPP-related)","cohort 6, 10,500 mg/m^2",0
same,"Acute kidney injury grade 3 (AE, not ITPP-related)","cohort 6, 10,500 mg/m^2",0
same,"Ascites due to oncological progress (AE, not ITPP-related)","cohort 6, 10,500 mg/m^2",0
same,"C. difficile enteritis (AE, not ITPP-related)","cohort 6, 10,500 mg/m^2",0
same,"Cholestasis (AE, not ITPP-related)","cohort 6, 10,500 mg/m^2",0
same,"Fatigue (AE, not ITPP-related)","cohort 6, 10,500 mg/m^2",0
same,Hyperphosphatemia (TET),"cohort 6, 10,500 mg/m^2",0
same,Hypertension (TET),"cohort 6, 10,500 mg/m^2",0
same,"Hypokalemia (AE, not ITPP-related)","cohort 6, 10,500 mg/m^2",0
same,"Hyponatremia (AE, not ITPP-related)","cohort 6, 10,500 mg/m^2",0
same,Hypophosphatemia (TET),"cohort 6, 10,500 mg/m^2",0
same,"Icterus due to malignant obstruction (AE, not ITPP-related)","cohort 6, 10,500 mg/m^2",0
same,"Lower gastrointestinal bleeding (AE, not ITPP-related)","cohort 6, 10,500 mg/m^2",0
same,"Nausea & vomiting due to malignant infiltration of stomach (AE, not ITPP-related)","cohort 6, 10,500 mg/m^2",0
same,"Nausea (AE, not ITPP-related)","cohort 6, 10,500 mg/m^2",0
same,"Palpitations (AE, not ITPP-related)","cohort 6, 10,500 mg/m^2",0
same,"Pyrexia (AE, not ITPP-related)","cohort 6, 10,500 mg/m^2",0
same,"Upper respiratory tract infection (AE, not ITPP-related)","cohort 6, 10,500 mg/m^2",0
same,"Hypercalcemia, CTCAE-Grade","cohort 6, AE",1
same,"Hypomagnesemia, CTCAE-Grade","cohort 6, AE, relationship to IMP: Possibly",1
same,"Neutropenia, CTCAE-Grade","cohort 6, AE, relationship to IMP: Unlikely",3
same,"AV Block 1° (AE, not ITPP-related)","cohort 7, 12,390 mg/m^2",0
same,"Acute kidney injury grade 3 (AE, not ITPP-related)","cohort 7, 12,390 mg/m^2",0
same,"C. difficile enteritis (AE, not ITPP-related)","cohort 7, 12,390 mg/m^2",0
same,"Cholestasis (AE, not ITPP-related)","cohort 7, 12,390 mg/m^2",0
same,"Fatigue (AE, not ITPP-related)","cohort 7, 12,390 mg/m^2",0
same,Hyperphosphatemia (TET),"cohort 7, 12,390 mg/m^2",0
same,Hypertension (TET),"cohort 7, 12,390 mg/m^2",0
same,Hypomagnesemia (TET),"cohort 7, 12,390 mg/m^2",0
same,Hypophosphatemia (TET),"cohort 7, 12,390 mg/m^2",0
same,"Icterus due to malignant obstruction (AE, not ITPP-related)","cohort 7, 12,390 mg/m^2",0
same,"Lower gastrointestinal bleeding (AE, not ITPP-related)","cohort 7, 12,390 mg/m^2",0
same,"Nausea & vomiting due to malignant infiltration of stomach (AE, not ITPP-related)","cohort 7, 12,390 mg/m^2",0
same,"Nausea (AE, not ITPP-related)","cohort 7, 12,390 mg/m^2",0
same,"Neutropenia (AE, not ITPP-related)","cohort 7, 12,390 mg/m^2",0
same,"Palpitations (AE, not ITPP-related)","cohort 7, 12,390 mg/m^2",0
same,"Hypercalcemia, CTCAE-Grade","cohort 7, AE",1
same,"Hypokalemia, CTCAE-Grade",[5],1
same,"Upper respiratory tract infection, CTCAE-Grade",[5],2
same,"Ascites, CTCAE-Grade",[6],3
same,"Pyrexia, CTCAE-Grade",[6],1
same,"Acute kidney injury grade 3 (AE, not ITPP-related)","cohort 8, 14,500 mg/m^2",0
same,"Ascites due to oncological progress (AE, not ITPP-related)","cohort 8, 14,500 mg/m^2",0
same,"C. difficile enteritis (AE, not ITPP-related)","cohort 8, 14,500 mg/m^2",0
same,"Cholestasis (AE, not ITPP-related)","cohort 8, 14,500 mg/m^2",0
same,"Fatigue (AE, not ITPP-related)","cohort 8, 14,500 mg/m^2",0
same,"Hypokalemia (AE, not ITPP-related)","cohort 8, 14,500 mg/m^2",0
same,"Hyponatremia (AE, not ITPP-related)","cohort 8, 14,500 mg/m^2",0
same,Hypophosphatemia (TET),"cohort 8, 14,500 mg/m^2",0
same,"Icterus due to malignant obstruction (AE, not ITPP-related)","cohort 8, 14,500 mg/m^2",0
same,"Lower gastrointestinal bleeding (AE, not ITPP-related)","cohort 8, 14,500 mg/m^2",0
same,"Nausea & vomiting due to malignant infiltration of stomach (AE, not ITPP-related)","cohort 8, 14,500 mg/m^2",0
same,"Nausea (AE, not ITPP-related)","cohort 8, 14,500 mg/m^2",0
same,"Neutropenia (AE, not ITPP-related)","cohort 8, 14,500 mg/m^2",0
same,"Palpitations (AE, not ITPP-related)","cohort 8, 14,500 mg/m^2",0
same,"Pyrexia (AE, not ITPP-related)","cohort 8, 14,500 mg/m^2",0
same,"Upper respiratory tract infection (AE, not ITPP-related)","cohort 8, 14,500 mg/m^2",0
same,"Hyperphosphatemia, CTCAE-Grade",[7],1
same,"Hypomagnesemia, CTCAE-Grade",[7],1
same,"Hypertension, CTCAE-Grade","cohort 8, AE, relationship to IMP: Probably",1
same,"AV Block 1°, CTCAE-Grade","cohort 8, AE, relationship to IMP: Unrelated",1
same,sTET or DLT,cohorts 1–7,No significant treatment-emergent toxicity (sTET) or dose limiting toxicity (DLT) was encountered
same,Total number of adverse events (AE),during ITPP administration and 10-day follow-up,56
same,Increase in diastolic blood pressure,"grade I, three older male patients with pre-existing hypertension",< 20 mmHg
same,"Hypercalcemia of free ionized calcium, CTCAE grade (first sTET)","patient Nr. 27, cohort 8, single dose 14’500 mg/m^2",grade II
same,"Hypercalcemia of free ionized calcium, CTCAE grade (second sTET and DLT)","patient Nr. 28, cohort 8, single dose 14’500 mg/m^2",grade II and IV
same,Maximum tolerated dose (MTD),"single dose, intravenous over eight hours, nine infusions over three weeks","12,390 mg/m^2"
